{
  "source": "patent US20060217308A1",
  "about": "“Compositions for the treatment of tumor pathologies, comprising internalin B (ln1B) of Listeria monocytogene protein or a fragment thereof” (priority 2005, published 2006)",
  "key": {"Met [1]": {"test_system": "Met", "test": "Effect of proteasome and lysosome inhibitors on In1B-dependent degradation of Met", "format": "cell-based, human", "conditions": "HeLa cells pre-treated with inhibitor before addition of In1B; anti-Met immunoblot", "procedure": "(A) Hela cells were treated (+) with […] epoximycin, […] clasto-lactacystin-β-lactone (lactone), 20 mM ammonium chloride, or 5 μM bafilomycin A1 (Baf-A1) for 90 minutes before addition of In1B. Cell extracts were loaded in a SDS-PAGE gel followed by immunoblot with anti-Met antibody. […] (B) Surface exposed proteins of Hela cells were biotinylated (Biot +) before addition of In1B. In1B was added for two minutes to allow internalization of Met, then cells were washed and biotin was removed (see methods and text) from the surface. Samples were precipitated with neutravidin agarose and blotted against Met.\nMono-ubiquitination is the signal that induces endocytosis of RTKs after ligand binding and usually drives cargo proteins to lysosomal degradation (6, 17, 34). To study whether In1B-dependent degradation of Met is a proteasomal or a lysosomal event, HeLa cells were treated with clasto-p-lactacystin lactone or epoximycin, two inhibitors of proteasome degradation, and ammonium chloride or bafilomycin A1, two inhibitors of lysosome degradation, […] before the addition of In1B. Cellular extracts were then immunoblotted using anti Met antibodies (FIG. 4)."}, "[2]": {"test_system": "poly-ubiquitinated proteins", "test": "FK1 functionality test: poly-ubiquitin immunoblot of HeLa cells treated with proteasome inhibitors", "format": "cell-based, human", "conditions": "60 minutes treatment, versus non-treated", "procedure": "(A) In1B was added (+) to HeLa cells. Lysates were immunoprecipitated using C12 rabbit polyclonal anti-Met antibody and blotted against Met (DL21 mAb). The same membrane was stripped and blotted against ubiquitin using FK1, a mAb that recognizes poly-ubiquitinated proteins, or P4D1, a mAb that recognizes both poly- and mono-ubiquitinated proteins. (B) Total cell extracts from Hela cells treated with […] epoximycin (lane 2) or […] clasto-lactacystin-β-lactone (lane 3) for 60 minutes, or non-treated cells (lane 1) were blotted against poly-ubiquitin (FK1) or actin. (C) ubiquitin ladder was blotted with FK1 or P4D1. The number of ubiquitin modules is indicated on the right. The molecular weight of protein markers is shown in the left of the panels, in kDa. In D and E, Hela Cells were transfected with siRNA to knock down Cbl expression (RNAi), or with RNA control (Control). (D) Cellular Cbl and actin were detected by immunoblotting. […]\nThe rapid degradation of Met after In B contact is different from the HGF-dependent degradation, which has been reported to take two hours (19-21), indicating differences in the biochemistry of the process. […] Samples from HeLa cells treated with In1B (5 nM) were immunoprecipitated using an anti-Met antibody, and then Met-immunoprecipitates were analyzed with an anti Met mAb (FIG. 3A1), FK1 (FIG. 3A2) or P4D1 (FIG. 3A3). […]"}, "Met [3]": {"test_system": "Met", "test": "Effect of cycloheximide on In1B-dependent degradation and de-novo synthesis of Met", "format": "cell-based, human", "conditions": "HeLa cells pre-treated 90 minutes before In1B", "procedure": "FIG. 2 depicts the degradation and de-novo synthesis of Met. (A) HeLa cells were treated at the indicated times with 5 nM In1B and cellular extracts were blotted against Met. (B) Cells were treated as in A, but blotted at the same time with anti-Met antibody and Streptavidin. Stars indicate nonspecific bands recognized by streptavidin and the square indicates Met. (C) The experiment was performed as in A, but cells were pre-treated with […] of cycloheximide for 90 minutes before addition of In1B. (D) This experiment was performed as in A, but In1B was removed three minutes after it was added. Actin is shown as the loading control in A, C and D. The molecular mass of the markers is indicated in kDa.\nIn order to determine whether de-novo synthesis of Met occurred after In1B dependent-degradation, HeLa cells were pre-treated with cycloheximide, which inhibits protein synthesis, for 90 minutes before exposure to In1B."}, "[4]": {"molecular_target": "Met (hepatocyte growth factor receptor), endogenous in human HeLa cells (human) (UniProt P08581)", "sequence (P08581 25-1390)": "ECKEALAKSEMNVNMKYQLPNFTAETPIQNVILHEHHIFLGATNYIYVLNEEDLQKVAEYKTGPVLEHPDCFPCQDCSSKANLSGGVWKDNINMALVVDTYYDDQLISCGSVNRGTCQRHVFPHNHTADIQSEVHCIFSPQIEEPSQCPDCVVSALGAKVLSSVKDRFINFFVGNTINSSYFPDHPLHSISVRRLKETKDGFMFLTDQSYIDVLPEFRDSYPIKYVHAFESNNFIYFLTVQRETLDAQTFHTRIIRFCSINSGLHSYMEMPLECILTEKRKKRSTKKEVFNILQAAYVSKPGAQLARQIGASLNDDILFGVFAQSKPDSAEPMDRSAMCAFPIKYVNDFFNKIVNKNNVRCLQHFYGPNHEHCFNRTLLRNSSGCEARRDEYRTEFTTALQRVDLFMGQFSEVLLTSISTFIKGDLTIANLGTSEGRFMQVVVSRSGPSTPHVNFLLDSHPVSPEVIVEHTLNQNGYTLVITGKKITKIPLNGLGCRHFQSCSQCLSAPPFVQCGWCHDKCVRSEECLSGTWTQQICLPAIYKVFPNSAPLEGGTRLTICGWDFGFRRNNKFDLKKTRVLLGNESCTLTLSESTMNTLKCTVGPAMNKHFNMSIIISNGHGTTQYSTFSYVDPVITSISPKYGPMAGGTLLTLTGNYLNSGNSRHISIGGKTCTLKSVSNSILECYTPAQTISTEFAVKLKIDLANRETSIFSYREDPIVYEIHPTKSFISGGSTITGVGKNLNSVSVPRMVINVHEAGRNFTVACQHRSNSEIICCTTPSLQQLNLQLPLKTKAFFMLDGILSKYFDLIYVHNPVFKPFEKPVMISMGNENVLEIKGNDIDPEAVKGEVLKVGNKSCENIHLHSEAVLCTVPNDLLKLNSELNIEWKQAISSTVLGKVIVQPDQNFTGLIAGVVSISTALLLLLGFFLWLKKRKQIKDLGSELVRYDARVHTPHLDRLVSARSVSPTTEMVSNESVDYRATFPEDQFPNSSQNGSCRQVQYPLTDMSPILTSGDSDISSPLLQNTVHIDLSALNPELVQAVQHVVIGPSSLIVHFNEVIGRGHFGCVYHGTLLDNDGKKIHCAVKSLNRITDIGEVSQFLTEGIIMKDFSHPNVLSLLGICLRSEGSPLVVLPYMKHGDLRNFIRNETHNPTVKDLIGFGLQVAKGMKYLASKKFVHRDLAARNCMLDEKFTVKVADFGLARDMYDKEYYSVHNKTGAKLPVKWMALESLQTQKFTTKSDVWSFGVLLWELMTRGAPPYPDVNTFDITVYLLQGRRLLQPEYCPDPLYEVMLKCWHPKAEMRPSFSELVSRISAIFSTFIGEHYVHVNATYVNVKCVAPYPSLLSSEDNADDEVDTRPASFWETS", "test": "cell-based or functional assay"}, "Met [5]": {"molecular_target": "Met (Homo sapiens, UniProt P08581)", "sequence (P08581 25-1390)": "as above", "conditions": "comparison with In1B; cited from earlier work"}},
  "data": [
    {"molecule": "CO/C1=C\\C(C)=C\\[C@@H](C)[C@@H](O)[C@@H](C)C/C(C)=C/C=C/[C@H](OC)[C@@H]([C@@H](C)[C@@H](O)[C@H](C)[C@@]2(O)C[C@@H](O)[C@H](C)[C@@H](C(C)C)O2)OC1=O", "note": "[bafilomycin A1]", "values": [
      {"measurement": "effect of inhibitor on In1B-dependent degradation of Met", "setting": "Met [1]", "result": "significantly protected Met from degradation"}
    ]},
    {"molecule": "CC(C)[C@H](O)[C@@]12NC(=O)[C@H](C)[C@@H]1OC2=O", "note": "[clasto-lactacystin-β-lactone]", "values": [
      {"measurement": "effect of inhibitor on In1B-dependent degradation of Met", "setting": "Met [1]", "result": "did not inhibit"},
      {"measurement": "poly-ubiquitin (FK1) signal in cells treated with proteasome inhibitor", "setting": "[2]", "result": "stronger signals"}
    ]},
    {"molecule": "C[C@@H]1C[C@@H]([C@H](O)CC2CC(=O)NC(=O)C2)C(=O)[C@@H](C)C1", "note": "[cycloheximide]", "values": [
      {"measurement": "effect of cycloheximide on In1B-dependent degradation of Met", "setting": "Met [3]", "result": "did not prevent"},
      {"measurement": "effect of cycloheximide on de-novo synthesis of Met after In1B", "setting": "Met [3]", "result": "strongly hampered"}
    ]},
    {"molecule": "CC[C@H](C)[C@H](NC(=O)[C@H]([C@@H](C)CC)N(C)C(C)=O)C(=O)N[C@H](C(=O)N[C@@H](CC(C)C)C(=O)[C@@]1(C)CO1)[C@@H](C)O", "note": "[epoximycin]", "values": [
      {"measurement": "effect of inhibitor on In1B-dependent degradation of Met", "setting": "Met [1]", "result": "did not inhibit"},
      {"measurement": "poly-ubiquitin (FK1) signal in cells treated with proteasome inhibitor", "setting": "[2]", "result": "stronger signals"}
    ]},
    {"molecule": "Cl.N", "note": "[ammonium chloride]", "values": [
      {"measurement": "effect of inhibitor on In1B-dependent degradation of Met", "setting": "Met [1]", "result": "significantly protected Met from degradation"}
    ]},
    {"molecule": "In1B (internalin B) of Listeria monocytogenes, purified soluble protein (ligand)", "values": [
      {"measurement": "Met phosphorylation (blot against phospho-tyrosine)", "setting": "[4]", "result": 2, "unit": "min"},
      {"measurement": "kinetics of In1B-dependent ubiquitination of Met", "setting": "[4]", "result": 2, "unit": "min"},
      {"measurement": "minimal amount of In1B necessary to trigger Met ubiquitination", "setting": "[4]", "result": 1.75, "unit": "nM"}
    ]},
    {"molecule": "HGF: Met ligand (hepatocyte growth factor)", "values": [
      {"measurement": "time needed for a similar rate of Met degradation after activation with HGF", "setting": "Met [5]", "result": "two to five and two"}
    ]}
  ]
}
